Source: patent US8476197B2, “Aminopropenoates as fungicides” (priority 2009, dated 2013)
Marks after values point to notes of the source that are not given here.

Conditions: pH 2.3

SMILES	Log P
CCOC(=O)C(C#N)=C(NC1CC2CCC1C2)c1cccnc1Cl (stereo not drawn) [Compound 1080]	3.59
CCOC(=O)C(C#N)=C(NC[Si](C)(C)C)c1cccnc1Cl [Compound 1085]	3.59

Same assay, conditions: pH 2.7

SMILES	Log P
COC(=O)C(C#N)=C(NC1CCc2ccccc21)c1cccnc1Cl (stereo not drawn) [Compound 1078]	3.06^[a]
CCOC(=O)C(C#N)=C(NC1CCc2ccccc21)c1cn(C)nc1C(F)F (stereo not drawn) [Compound 1079]	3.42^[a]
CCOC(=O)C(C#N)=C(NC1CC2CCC1C2)c1cccnc1Cl (stereo not drawn) [Compound 1081]	3.7^[a]
CCOC(=O)C(C#N)=C(NC1CC2CCC1C2)c1cccnc1Cl (stereo not drawn) [Compound 1082]	3.74^[a]
CCOC(=O)C(C#N)=C(NC1C2CCCCC21)c1cccnc1Cl (stereo not drawn) [Compound 1083]	3.73^[a]
CCOC(=O)C(C#N)=C(NC(C)(C)C#Cc1ccc(C#N)cc1)c1sccc1C(F)(F)F [Compound 1091]	4.24^[a]
CCOC(=O)C(C#N)=C(NC(C)(C)C#Cc1ccc(C)cc1)c1cn(C)nc1C(F)F [Compound 1097]	4.11^[a]
CCOC(=O)C(C#N)=C(NC(C)(C)C#Cc1ccc(C)cc1)c1sc(C)nc1C(F)(F)F [Compound 1098]	4.92^[a]
CCOC(=O)C(C#N)=C(NC(C)(C)C#CCOC)c1cn(C)nc1C(F)F [Compound 1101]	2.73^[a]
CCOC(=O)C(C#N)=C(NC(C)(C)C=C(Cl)Cl)c1cn(C)nc1C(F)F [Compound 1106]	3.31^[a]
CCOC(=O)C(C#N)=C(NC(C)C1=NOCCO1)c1cccnc1Cl (stereo not drawn) [Compound 1117]	2.11^[a]
CCNC(=O)C(C#N)=C(NC(C)c1ccncn1)c1cccnc1Cl (stereo not drawn) [Compound 1118]	1.62^[a]
CC#CC(C)NC(=C(C#N)C(=O)NCC)c1cccnc1Cl (stereo not drawn) [Compound 1119]	2.5^[a]
CCNC(=O)C(C#N)=C(NCC(C)c1nccs1)c1cccnc1Cl (stereo not drawn) [Compound 1120]	2.14^[a]
CCOC(=O)C(C#N)=C(NC1CCC1)c1cn(C)nc1C(F)F [Compound 1123]	2.73^[a]
CCOC(=O)C(C#N)=C(NC1CC1)c1cn(C)nc1C(F)F [Compound 1124]	2.35^[a]
CCCCC(C)NC(=C(C#N)C(=O)OCC)c1cn(C)nc1C(F)F (stereo not drawn) [Compound 1125]	3.58^[a]
C=CCNC(=C(C#N)C(=O)OCC)c1cn(C)nc1C(F)F [Compound 1127]	2.35^[a]
C#CCNC(=C(C#N)C(=O)OCC)c1cn(C)nc1C(F)F [Compound 1128]	2.13^[a]
CCOC(=O)C(C#N)=C(NC1CC1C)c1cn(C)nc1C(F)F (stereo not drawn) [Compound 1130]	2.68^[a]

SMILES	Log P
CCOC(=O)C(C#N)=C(NC1C2CCCCC21)c1cn(C)nc1C(F)F (stereo not drawn) [Compound 1131]	3.44^[a]
CCOC(=O)C(C#N)=C(NC(C)C1CCC1)c1cn(C)nc1C(F)F (stereo not drawn) [Compound 1133]	3.33^[a]
CCOC(=O)C(C#N)=C(NC(C)COCC(C)(C)C)c1cn(C)nc1C(F)F (stereo not drawn) [Compound 1135]	4.08^[a]
CCOC(=O)C(C#N)=C(NC(C)CC1CC1)c1cn(C)nc1C(F)F (stereo not drawn) [Compound 1136]	3.23^[a]
CCOC(=O)C(C#N)=C(NC(C)C1CC=CCC1)c1cn(C)nc1C(F)F (stereo not drawn) [Compound 1141]	3.62^[a]
CC#CC(C)NC(=C(C#N)C(=O)OCC)c1cn(C)nc1C(F)F (stereo not drawn) [Compound 1142]	2.8^[a]
CCOC(=O)C(C#N)=C(NC1CC2CCC1C2)c1cn(C)nc1C(F)F (stereo not drawn) [Compound 1144]	3.46^[a]
CCOC(=O)C(C#N)=C(NC1CC1CC)c1cn(C)nc1C(F)F (stereo not drawn) [Compound 1146]	3.04^[a]
CCOC(=O)C(C#N)=C(NC1CC1C(F)(F)F)c1cn(C)nc1C(F)F (stereo not drawn) [Compound 1147]	2.75^[a]
CCOC(=O)C(C#N)=C(NC1CC1(C)C)c1cn(C)nc1C(F)F (stereo not drawn) [Compound 1148]	3^[a]
CCOC(=O)C(C#N)=C(NC(C)c1ccc(F)cc1)c1cccnc1Cl (stereo not drawn) [Compound 1149]	3.51^[a]
CCOC(=O)C(C#N)=C(NC(C)c1ccc(C)cc1)c1cccnc1Cl (stereo not drawn) [Compound 1150]	3.87^[a]
CCOC(=O)C(C#N)=C(NC(C)c1ccccc1)c1cccnc1Cl (stereo not drawn) [Compound 1151]	3.48^[a]
CCOC(=O)C(C#N)=C(NC(C)c1cccc(Cl)c1)c1cccnc1Cl (stereo not drawn) [Compound 1152]	3.83^[a]
CCOC(=O)C(C#N)=C(NC(C)CSc1ccc(Cl)cc1)c1cccnc1Cl (stereo not drawn) [Compound 1156]	4.08^[a]
CCOC(=O)C(C#N)=C(NC(C)CSc1ccc(Cl)c(Cl)c1)c1cccnc1Cl (stereo not drawn) [Compound 1158]	4.41^[a]
CCOC(=O)C(C#N)=C(NC(C)C(C)Sc1ccccc1)c1cccnc1Cl (stereo not drawn) [Compound 1159]	4.13^[a]
CCOC(=O)C(C#N)=C(NC(C)COc1ccccc1)c1cccnc1Cl (stereo not drawn) [Compound 1161]	3.58^[a]
CCOC(=O)C(C#N)=C(NC(C)COCc1ccccc1)c1cccnc1Cl (stereo not drawn) [Compound 1162]	3.71^[a]
CCOC(=O)C(C#N)=C(NC(C)COCc1ccccc1F)c1cccnc1Cl (stereo not drawn) [Compound 1163]	3.69^[a]

Other lines, results leading:

Log P	SMILES
3.37^[a]	COC(=O)C(C#N)=C(NC1CCCC(C)C1)c1cccnc1Cl (stereo not drawn) [Compound 1074]
3.04^[a]	COC(=O)C(C#N)=C(NC1CCC(C(F)(F)F)CC1)c1cccnc1Cl (stereo not drawn) [Compound 1075]
3.37^[a]	COC(=O)C(C#N)=C(NC1CCC(C)CC1)c1cccnc1Cl (stereo not drawn) [Compound 1076]
4.51^[a]	COC(=O)C(C#N)=C(NC1CCC(C(C)(C)C)CC1)c1cccnc1Cl (stereo not drawn) [Compound 1077]
4.25^[a]	COC(=O)C(C#N)=C(NC1CCCC2CCCCC21)c1cccnc1Cl (stereo not drawn) [Compound 1084]
2.43^[a]	CCOC(=O)C(C#N)=C(NC(C(=O)NC)c1ccccc1)c1cccnc1Cl (stereo not drawn) [Compound 1087]
2.99^[a]	C#CC1(NC(=C(C#N)C(=O)OC)c2cccnc2Cl)CCCCC1 [Compound 1088]
4.16^[a]	CCOC(=O)C(C#N)=C(NC(C)(C)C#Cc1ccc(C#N)cc1)c1sccc1Br [Compound 1089]
3.37^[a]	CCOC(=O)C(C#N)=C(NC(C)(C)C#Cc1ccc(C#N)cc1)c1cn(C)nc1C(F)F [Compound 1090]
3.78^[a]	COC(=O)C(C#N)=C(NC(C)(C)C#Cc1ccc(C#N)cc1)c1sc(C)nc1C(F)(F)F [Compound 1092]
4.04^[a]	CCOC(=O)C(C#N)=C(NC(C)(C)C#Cc1ccc(C#N)cc1)c1sc(C)nc1C(F)(F)F [Compound 1093]
4.21^[a]	CCOC(=O)C(C#N)=C(NC(C)(C)C#Cc1ccc(C#N)cc1)c1ccsc1Br [Compound 1094]
4.51^[a]	COC(=O)C(C#N)=C(NC(C)(C)C#Cc1ccc(C)cc1)c1sc(C)nc1C(F)(F)F [Compound 1095]
5.05^[a]	CCOC(=O)C(C#N)=C(NC(C)(C)C#Cc1ccc(C)cc1)c1sccc1Br [Compound 1096]
3.55^[a]	CCOC(=O)C(C#N)=C(NC(C)(C)C#CCOC)c1sccc1C(F)(F)F [Compound 1099]
3.06^[a]	COCC#CC(C)(C)NC(=C(C#N)C(=O)OC)c1sc(C)nc1C(F)(F)F [Compound 1100]
3.42^[a]	CCOC(=O)C(C#N)=C(NC(C)(C)C#CCOC)c1sc(C)nc1C(F)(F)F [Compound 1102]
4.26^[a]	CCOC(=O)C(C#N)=C(NC(C)(C)C=C(Cl)Cl)c1sccc1C(F)(F)F [Compound 1103]
3.73^[a]	COC(=O)C(C#N)=C(NC(C)(C)C=C(Cl)Cl)c1sc(C)nc1C(F)(F)F [Compound 1104]

Log P	SMILES
4.21^[a]	CCOC(=O)C(C#N)=C(NC(C)(C)C=C(Cl)Cl)c1sccc1Br [Compound 1105]
3.96^[a]	CCOC(=O)C(C#N)=C(NC(C)CON=C(C)c1ccccc1)c1cccnc1Cl (stereo not drawn) [Compound 1111]
3.83^[a]	CCOC(=O)C(C#N)=C(NC(C)CON=C(C)c1ccccc1)c1cn(C)nc1C(F)F (stereo not drawn) [Compound 1112]
2.99^[a]	COC(=O)C(C#N)=C(NC1(C(F)(F)F)CCCCC1)c1cccnc1Cl [Compound 1113]
3.6^[a]	CCOC(=O)C(C#N)=C(NC1CCCCC1C)c1cn(C)nc1C(F)F (stereo not drawn) [Compound 1122]
3.35^[a]	CCOC(=O)C(C#N)=C(NC[Si](C)(C)C)c1cn(C)nc1C(F)F [Compound 1126]
3.53^[a]	CCOC(=O)C(C#N)=C(NC(CC(C)C)C(=O)OCC)c1cn(C)nc1C(F)F (stereo not drawn) [Compound 1129]
2.1^[a]	CCOC(=O)C(C#N)=C(NC1(C#N)CC1)c1cn(C)nc1C(F)F [Compound 1132]
4.03^[a]	CCOC(=O)C(C#N)=C(NC(C)C1CC2CCC1C2)c1cn(C)nc1C(F)F (stereo not drawn) [Compound 1134]
2.27^[a]	CCOC(=O)C(C#N)=C(NC(C(=O)NC)c1ccccc1)c1cn(C)nc1C(F)F (stereo not drawn) [Compound 1137]
2.68^[a]	CCOC(=O)C(C#N)=C(NC(C)CC(=O)Nc1ccccc1C)c1cn(C)nc1C(F)F (stereo not drawn) [Compound 1138]
2.66^[a]	CCOC(=O)CC(C)NC(=C(C#N)C(=O)OCC)c1cn(C)nc1C(F)F (stereo not drawn) [Compound 1139]
2.94^[a]	CCOC(=O)C(C#N)=C(NC(C(=O)OC)c1ccccc1)c1cn(C)nc1C(F)F (stereo not drawn) [Compound 1140]
3.39^[a]	CC#CC1(NC(=C(C#N)C(=O)OCC)c2cn(C)nc2C(F)F)CCCC1 [Compound 1143]
2.98^[a]	CCOC(=O)C(C#N)=C(Nc1ccc(OC)cc1)c1cccnc1Cl [Compound 1153]
4.08^[a]	CCOC(=O)C(C#N)=C(Nc1ccc(C(C)C)cc1)c1cccnc1Cl [Compound 1154]
4.01^[a]	CCOC(=O)C(C#N)=C(NC(C)COc1ccccc1C)c1cccnc1Cl (stereo not drawn) [Compound 1155]
4.27^[a]	CCOC(=O)C(C#N)=C(NC(C)CSc1cc(Cl)ccc1Cl)c1cccnc1Cl (stereo not drawn) [Compound 1157]
4.13^[a]	CCOC(=O)C(C#N)=C(NC(C)COc1cccc(C(F)(F)F)c1)c1cccnc1Cl (stereo not drawn) [Compound 1160]

Same assay, conditions: pH 7.5

SMILES	Log P
CCOC(=O)C(C#N)=C(NC1CC2CCC1C2)c1cccnc1Cl (stereo not drawn) [Compound 1080]	3.57
CCOC(=O)C(C#N)=C(NC[Si](C)(C)C)c1cccnc1Cl [Compound 1085]	3.46
CCOC(=O)C(C#N)=C(NC(C)COS(C)(=O)=O)c1cccnc1Cl (stereo not drawn) [Compound 1107]	2.17
CCOC(=O)C(C#N)=C(NC(C)CSC#N)c1cccnc1Cl (stereo not drawn) [Compound 1109]	2.35
